{
  "source": "patent EP0476408A1",
  "about": "“Chemical conjugation of morpholino anthracyclines to antibodies” (RESEARCH CORPORATION TECHNOLOGIES, INC., priority 1990, dated 1992)",
  "system": "A-375 cells",
  "assay": "Cytotoxicity of conjugate versus uncoupled drug, serial dilutions",
  "assay_type": "cell-based",
  "conditions": "drug alone versus conjugate, Figure 6",
  "data": [
    {"smiles": "COc1cccc2c1C(=O)c1c(O)c3c(c(O)c1C2=O)C[C@@](O)(C(=O)CO)C[C@@H]3O[C@H]1C[C@H](N2CCOCC2)[C@H](O)[C@H](C)O1", "note": "[MRA, morpholino doxorubicin]", "values": [
      {"measurement": "cytotoxicity", "value": "Identical cytoxicity"}
    ]}
  ]
}
